From US9133178B2, “Alpha-7 nicotinic receptor modulators for the treatment of pain, a psychotic disorder, cognitive impairment or alzheimer'S disease” (Proximagen Limited, priority 2010, dated 2015)
Counter-ions that a name gives are not always drawn.

molecular target: T1, human α7 nAChR (Homo sapiens, UniProt P36544); assay: cell-based calcium flux assay (FLIPR) for PAM activity at the α7 nAChR; conditions: Table 1; potentiation of nicotine-evoked calcium flux, GH4C1 cells stably transfected with human α7 nAChR; read-out: a7 new sm > PXC50 MEAN
T1 construct: expressed in transfected cells; host or cells: GH4C1 (rat pituitary cell line)
Method: The PAM activity of the compounds of the invention at the α7 nAChR may be determined using the following cell-based calcium flux assay which uses a Fluorimetric Image Plate Reader (FLIPR) (see Schroeder et al.; J. Biomolecular Screening, 1(2), p 75-80, 1996).
GH4C1 cell line stably transfected with human α7 nAChR was suspended in a 384 well plate and incubated at 30° C. for 48 h in a 5% carbon dioxide atmosphere. The growth media was removed and the cells washed three times with a solution of Hanks' balanced salt solution (HBSS), 20 mM HEPES and 2.5 mM probenecid leaving 20 μl washing solution in each well. A loading solution (200) containing HBSS, probenecid, 1-4 μM Fluo4 AM (a calcium indicator dye) and pluronic acid was added and the plate incubated for 45 min at 37° C. under an atmosphere free from carbon dioxide. The cells were washed three times leaving 30 μl in each well. The plate containing the cells and calcium indicator dye were then transferred to the FLIPR. The assay was initiated by collecting baseline datapoints at 10 second intervals followed by addition of the test compound in buffer solution (0.33% DMSO) and diluted to a final concentration of 10 μM and serial dilution of the wells, 1:2 or 1:3, gave a low concentration of <1 nM. Following a further 5-10 mins 10 μl of 50 μM nicotine was added and data collected for 2 to 3 mins. Nicotine produced a rapid, transient and reproducible calcium flux which could be potentiated with the positive allosteric modulator test compounds.

T1 sequence (P36544 23-502): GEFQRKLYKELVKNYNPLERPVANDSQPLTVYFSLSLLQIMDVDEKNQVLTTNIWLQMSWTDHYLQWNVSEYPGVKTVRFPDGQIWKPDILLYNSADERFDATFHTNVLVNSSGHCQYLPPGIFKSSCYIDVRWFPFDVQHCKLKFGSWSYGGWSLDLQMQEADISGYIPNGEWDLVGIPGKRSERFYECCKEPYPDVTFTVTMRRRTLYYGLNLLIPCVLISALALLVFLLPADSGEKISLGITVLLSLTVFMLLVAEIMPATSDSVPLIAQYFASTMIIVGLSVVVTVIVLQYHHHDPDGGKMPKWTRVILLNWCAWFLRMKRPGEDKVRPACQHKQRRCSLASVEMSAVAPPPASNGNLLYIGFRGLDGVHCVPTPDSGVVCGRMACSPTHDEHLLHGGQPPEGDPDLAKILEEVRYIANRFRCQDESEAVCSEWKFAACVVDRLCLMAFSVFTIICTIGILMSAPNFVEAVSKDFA

`Cc1cc(-c2cnc(N3CCCC(C)C3)nc2-c2ccoc2C)ccn1` (centres unmarked) [Example 3, 4-(2-Methyl-3-furanyl)-2-(3-methyl-1-piperidinyl)-5-(2-methyl-4-pyridinyl)pyrimidine hydrochloride] and `Cc1occc1-c1nc(N2CCCC(C)C2)ncc1-c1ccncc1` (centres unmarked) [Example 1, 4-(2-Methyl-3-furanyl)-2-(3-methyl-1-piperidinyl)-5-(4-pyridinyl)pyrimidine hydrochloride] cannot be ordered by EC50: at most 1 µM for the first, at most 1 µM for the second.

`Cc1cc(-c2ncc(N3C[C@@H](C)O[C@@H](C)C3)nc2-c2ccoc2C)ccn1` [Example 10, cis-2,6-Dimethyl-4-[6-(2-methyl-3-furanyl)-5-(2-methyl-4-pyridinyl)-2-pyrazinyl]morpholine hydrochloride] and `Cc1cc(-c2ccc(N3C[C@@H](C)O[C@@H](C)C3)nc2-c2ccoc2C)ccn1` [Example 12, 6-(cis-2,6-dimethyl-4-morpholinyl)-2′-methyl-2-(2-methyl-3-furanyl)-3,4′-bipyridine hydrochloride] cannot be ordered by EC50: at most 3.16 µM for the first, at most 3.16 µM for the second.

`Cc1cc(-c2cnc(N3C[C@@H](C)O[C@@H](C)C3)cc2-c2ccoc2C)ccn1` [Example 11, 6-(cis-2,6-dimethyl-4-morpholinyl)-2′-methyl-4-(2-methyl-3-furanyl)-3,4′-bipyridine hydrochloride] and `Cc1cc(-c2ccc(N3C[C@@H](C)O[C@@H](C)C3)cc2-c2ccoc2C)ccn1` [Example 13, cis-2,6-Dimethyl-4-[3-(2-methyl-3-furanyl)-4-(2-methyl-4-pyridinyl)phenyl]morpholine] cannot be ordered by EC50: at most 3.16 µM for the first, at most 1 µM for the second.

`Cc1cnccc1-c1cnc(N2C[C@@H](C)O[C@@H](C)C2)nc1-c1ccoc1C` [Example 15, cis-2,6-dimethyl-4-[4-(2-methyl-3-furanyl)-5-(3-methyl-4-pyridinyl)-2-pyrimidinyl]morpholine hydrochloride] and `Cc1cc(-c2cnc(N3C[C@@H](C)O[C@@H](C)C3)nc2-c2ccoc2C)ccn1` [Example 5, cis-2,6-Dimethyl-4-[4-(2-methyl-3-furanyl)-5-(2-methyl-4-pyridinyl)-2-pyrimidinyl]morpholine hydrochloride] cannot be ordered by EC50: at most 3.16 µM for the first, at most 1 µM for the second.

`Cc1cc(-c2cnc(N3CCCCC3)nc2-c2ccoc2C)ccn1` [Example 4, 4-(2-Methyl-3-furanyl)-5-(2-methyl-4-pyridinyl)-2-(1-piperidinyl)pyrimidine hydrochloride] and `Cc1occc1-c1nc(N2CCCCCC2)ncc1-c1ccccn1` [Example 7, 1-[4-(2-Methyl-3-furanyl)-5-(2-Pyridinyl)-2-pyrimidinyl]hexahydro-1H-azepine hydrochloride] cannot be ordered by EC50: at most 1 µM for the first, at most 10 µM for the second.

`Cc1occc1-c1nc(N2CCCC(C)C2)ncc1-c1cccnc1` (centres unmarked) [Example 2, 4-(2-Methyl-3-furanyl)-2-(3-methyl-1-piperidinyl)-5-(3-pyridinyl)pyrimidine hydrochloride] and `Cc1occc1-c1nc(N2CCCC(C)C2)ncc1-c1ccccn1` (centres unmarked) [Example 8, 4-(2-Methyl-3-furanyl)-2-(3-methyl-1-piperidinyl)-5-(2-pyridinyl)pyrimidine hydrochloride] cannot be ordered by EC50: at most 10 µM for the first, at most 3.16 µM for the second.

`Cc1cc(-c2cnc(N3C[C@@H](C)O[C@@H](C)C3)nc2-c2cccnc2C(F)(F)F)ccn1` [Example 16, cis-2,6-Dimethyl-4-{5-(2-methyl-4-pyridinyl)-4-[2-(trifluoromethyl)-3-pyridinyl]-2-pyrimidinyl}morpholine hydrochloride] and `Cc1cc(-c2cnc(N3C[C@@H](C)O[C@@H](C)C3)nc2-c2cccc(C(F)(F)F)c2C#N)ccn1` [Example 19, cis-2-[2-(2,6-dimethyl-4-morpholinyl)-5-(2-methyl-4-pyridinyl)-4-pyrimidinyl]-6-(trifluoromethyl)benzonitrile hydrochloride] cannot be ordered by EC50: at most 10 µM for the first, at most 1 µM for the second.

`Cc1cc(-c2cnc(N3C[C@@H](C)O[C@@H](C)C3)nc2-c2cnc(F)cc2C)ccn1` [Example 17, cis-4-[4-(6-Fluoro-4-methyl-3-pyridinyl)-5-(2-methyl-4-pyridinyl)-2-pyrimidinyl]-2,6-dimethylmorpholine hydrochloride] and `Cc1cc(-c2cnc(N3C[C@H](C)O[C@@H](C)C3)nc2-c2ccoc2C)ccn1` (relative stereo) [Example 6, trans-2,6-Dimethyl-4-[4-(2-methyl-3-furanyl)-5-(2-methyl-4-pyridinyl)-2-pyrimidinyl]morpholine hydrochloride] cannot be ordered by EC50: at most 3.16 µM for the first, at most 1 µM for the second.

`Cc1cc(-c2cnc(N3C[C@@H](C)O[C@@H](C)C3)nc2-c2cc(F)ccc2C#N)ccn1` [Example 18, cis-2-[2-(2,6-Dimethyl-4-morpholinyl)-5-(2-methyl-4-pyridinyl)-4-pyrimidinyl]-4-fluorobenzonitrile hydrochloride] and `Cc1cc(-c2cnc(N3C[C@@H](C)O[C@@H](C)C3)nc2-c2ccccc2C)ccn1` [Example 14, cis-2,6-Dimethyl-4-[4-(2-methylphenyl)-5-(2-methyl-4-pyridinyl)-2-pyrimidinyl]morpholine] cannot be ordered by EC50: at most 10 µM for the first, at most 3.16 µM for the second.

`Cc1cc(-c2cnc(N3C[C@@H](C)O[C@@H](C)C3)nc2CC(C)C)ccn1` [Example 9, cis-2,6-Dimethyl-4-[4-(2-methylpropyl)-5-(2-methyl-4-pyridinyl)-2-pyrimidinyl]morpholine hydrochloride] gave an EC50 of at most 1 µM.

same assay, conditions: Table 2, commercially available compounds; potentiation of nicotine-evoked calcium flux, GH4C1 cells stably transfected with human α7 nAChR; read-out: a7 new sm > PXC50 MEAN

`c1cc(-c2cnc(N3CCSCC3)nc2-c2ccoc2)ccn1` [ADM 14465558] and `c1cc(-c2cnc(N3CCCCC3)nc2-c2ccoc2)ccn1` [ADM 14465561] cannot be ordered by EC50: at most 1 µM for the first, at most 10 µM for the second.

`Cc1occc1-c1nc(N2CCSCC2)ncc1-c1ccncc1` [ADM 13269686] and `Cc1occc1-c1nc(N2CCCC2)ncc1-c1ccncc1` [ADM 13269675] cannot be ordered by EC50: at most 3.16 µM for the first, at most 3.16 µM for the second.

`Cc1cc(-c2cnc(N3CCSCC3)nc2-c2ccc(C)s2)on1` [ADM 14408364] and `Cc1cc(-c2cnc(N3CCSCC3)nc2-c2ccc(C)o2)on1` [AEM 14465590] cannot be ordered by EC50: at most 3.16 µM for the first, at most 3.16 µM for the second.

`Cc1ccc(-c2nc(N3CCCC(C)C3)ncc2-c2cc(C)no2)cn1` (centres unmarked) [ADM 14220368] and `Cc1ccc(-c2nc(N3CCCC3)ncc2-c2cc(C)no2)cn1` [ADM 14220366] cannot be ordered by EC50: at most 1 µM for the first, at most 10 µM for the second.

`COc1cc(-c2cnc(N3CCCC3)nc2-c2ccco2)nc(OC)n1` [ATL 14631887] and `COc1cc(-c2cnc(N3CCCCC3)nc2-c2ccco2)nc(OC)n1` [ATL 14631888] cannot be ordered by EC50: at most 10 µM for the first, at most 10 µM for the second.

`c1coc(-c2cnc(N3CCSCC3)nc2-c2ccco2)c1` [LMK 13280444] and `CC1CCCN(c2ncc(-c3ccncc3)c(-c3ccco3)n2)C1` (centres unmarked) [LMK 13268083] cannot be ordered by EC50: at most 3.16 µM for the first, at most 10 µM for the second.

`Cc1noc(C)c1-c1nc(N2CCCC(C)C2)ncc1-c1ccncc1` (centres unmarked) [AOP 14465526] and `Cc1noc(C)c1-c1nc(N2CCCCCC2)ncc1-c1ccncc1` [AOP 14465544] cannot be ordered by EC50: at most 3.16 µM for the first, at most 3.16 µM for the second.

`Cc1occc1-c1nc(N2CCCCCC2)ncc1-c1ccncc1` [ATL 13269690 or ADM 13269690] and `Cc1occc1-c1nc(N2CCCCC2)ncc1-c1ccncc1` [ADM 13269676] cannot be ordered by EC50: at most 3.16 µM for the first, at most 1 µM for the second.

`Cc1ccc(-c2nc(N3CCCCC3)ncc2-c2cc(C)no2)cn1` [ADM 14220371] and `Cc1ccc(-c2nc(N3CCCCC3)ncc2-c2ccncc2)cn1` [AOP 13274014] cannot be ordered by EC50: at most 1 µM for the first, at most 3.16 µM for the second.

`c1ccc(-c2nnc(N3CCCC3)nc2-c2ccccc2)cc1` [AO-476/43380313] and `Cc1ccc(-c2nc(N3CCCC(C)C3)ncc2-c2ccncc2)cn1` (centres unmarked) [AOP 13274016] cannot be ordered by EC50: at most 1 µM for the first, at most 1 µM for the second.

`Cc1occc1-c1nc(N2CCCC(C)C2)ncc1-c1ccncc1` (centres unmarked) [ADM 13269678] and `Cc1occc1-c1nc(N2CC(C)OC(C)C2)ncc1-c1ccncc1` (centres unmarked) [ADM 13269721] cannot be ordered by EC50: at most 1 µM for the first, at most 1 µM for the second.

`Cc1noc(C)c1-c1nc(N2CCSCC2)ncc1-c1ccncc1` [AOP 14465529] and `Cc1occc1-c1nc(N2CCN(C(=O)c3ccco3)CC2)ncc1-c1ccccn1` [ADM 13270126] cannot be ordered by EC50: at most 10 µM for the first, at most 10 µM for the second.

same assay, conditions: further batch (as the HCl salt); read-out: pEC50 (converted)

Molecule `Cc1cc(-c2cnc(N3C[C@@H](C)O[C@@H](C)C3)nc2-c2ccccc2C#N)ccn1` has an EC50 of over 10 µM.

same assay, conditions: further batch (as the HCl salt); relative to nicotine control

For `Cc1cc(-c2cnc(N3C[C@@H](C)O[C@@H](C)C3)nc2-c2ccccc2C#N)ccn1`, the “maximum potentiation of the response area relative to nicotine control” value was “approximately 1200%”.

same assay, conditions: potentiation of nicotine-evoked calcium flux; read-out: pEC50 (converted)

With `Cc1cc(-c2cnc(N3C[C@@H](C)O[C@@H](C)C3)nc2-c2ccccc2C#N)ccn1` the EC50 was about 2.51 µM.

same assay, conditions: relative to nicotine control

With `Cc1cc(-c2cnc(N3C[C@@H](C)O[C@@H](C)C3)nc2-c2ccccc2C#N)ccn1` the “maximum potentiation of the response area relative to nicotine control” value was “approximately 1200%”.
